The values below come from patent publication US7585859B2, “PDE4B inhibitors and uses therefor” (Plexxikon, Inc., priority 2004, dated 2009).

Where two headings read alike, the source gives them in different places.

Assay [1] concerns the target T1, PDE4B: The catalytic domain of human PDE4B from S152-S528 (Homo sapiens, UniProt Q07343).
T1 construct: His6 (N); thrombin cleavage site (N); made in house; host or cells: E. coli
Briefly: PDE4 IC50 determination by Scintillation Proximity Assay, PDE4B. Format: biochemical. In a few lines:
(§1)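 Enzyme was added to compound and [^3H]cAMP, then incubated 30 min at 30° (PDE4B 80 ng/ml; PDE4D 4 ng/ml). Product [^3H]AMP bound to SPA beads and was counted. IC50 was fitted by non-linear regression against DMSO and roflumilast controls.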

For another assay, the target named is T2, PDE4D (Homo sapiens, UniProt Q08499).
T2 construct: PDE4D: The catalytic domain of human PDE4B from S3 16-V692; His6 (N); thrombin cleavage site (N); made in house; host or cells: E. coli
T2 sequence (Q08499 380-756): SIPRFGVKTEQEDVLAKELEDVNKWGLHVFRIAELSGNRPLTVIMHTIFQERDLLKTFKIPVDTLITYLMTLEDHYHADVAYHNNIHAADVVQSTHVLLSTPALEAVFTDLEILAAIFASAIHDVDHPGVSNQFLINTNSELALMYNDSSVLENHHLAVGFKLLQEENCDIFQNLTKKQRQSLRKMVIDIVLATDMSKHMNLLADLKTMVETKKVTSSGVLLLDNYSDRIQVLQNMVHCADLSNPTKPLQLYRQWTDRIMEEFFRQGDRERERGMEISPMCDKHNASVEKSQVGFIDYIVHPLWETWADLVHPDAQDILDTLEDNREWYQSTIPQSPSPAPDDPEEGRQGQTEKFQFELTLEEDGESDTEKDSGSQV
Briefly: PDE4 IC50 determination by Scintillation Proximity Assay, PDE4D. Format: biochemical. In a few lines: as §1

[2] abbreviates: Table 3A, Formula III compounds, read-out: IC50 PDE4B.
[3] abbreviates: Table 3A, Formula III compounds, read-out: IC50 PDE4D.
[4] abbreviates: Table 1B, Formula I compounds, read-out: IC50 PDE4B.
The mark [5] stands for this setting: Table 1B, Formula I compounds, read-out: IC50 PDE4D.
Setting [6] is: first part of Table 2B (2-1 to 2-22), read-out: IC 50 vs. indicated assay PDE4B.
The mark [7] stands for this setting: first part of Table 2B (2-1 to 2-22), read-out: IC 50 vs. indicated assay PDE4D.
Setting [8] is: second part of Table 2B (2-23 to 2-103), column 3, column is PDE4B in first part, read-out: IC 50 vs. indicated assay h TNFα.
[9] abbreviates: second part of Table 2B (2-23 to 2-103), column 5, column is PDE4D in first part, read-out: IC 50 vs. indicated assay h TNFα.

T1 sequence (Q07343 with tags, fused parts or gaps): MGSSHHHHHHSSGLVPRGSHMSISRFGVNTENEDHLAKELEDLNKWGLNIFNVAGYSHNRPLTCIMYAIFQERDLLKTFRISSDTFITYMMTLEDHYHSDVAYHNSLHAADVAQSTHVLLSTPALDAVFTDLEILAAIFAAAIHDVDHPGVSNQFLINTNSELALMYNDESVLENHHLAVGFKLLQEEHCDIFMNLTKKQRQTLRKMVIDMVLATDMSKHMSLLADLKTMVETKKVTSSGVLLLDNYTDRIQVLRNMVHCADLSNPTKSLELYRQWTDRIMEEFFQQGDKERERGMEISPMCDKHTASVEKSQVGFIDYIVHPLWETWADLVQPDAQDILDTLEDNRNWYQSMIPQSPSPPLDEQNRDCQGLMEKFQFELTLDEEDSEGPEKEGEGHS

`CSc1nccc(-c2ccc(S(=O)(=O)Nc3cccc4cccnc34)s2)n1` [Compound 3-16, 5-(2-Methylsulfanyl-pyrimidin-4-yl)-thiophene-2-sulfonic acid quinolin-8-ylamide]: the IC50 (in assay [1] (setting [2]); on PDE4D (setting [3])) was less than 10 µM in each case.
Consider `CCOC(=O)c1sc(NC2CCCC2)c(C#N)c1N` [Compound 1-199, 3-Amino-4-cyano-5-cyclopentylamino-thiophene-2-carboxylic acid ethyl ester], for which the IC50 (in assay [1] (setting [4]); on PDE4D (setting [5])) was less than 10 µM each time.
In the case of `CCOC(=O)c1cc(C(=O)c2sc(NC(=O)c3ccccc3C)c(C#N)c2N)on1` [Compound 1-136, 5-[3-Amino-4-cyano-5-(2-methyl-benzoylamino)-thiophene-2-carbonyl]-isoxazole-3-carboxylic acid ethyl ester], the IC50 (in assay [1] (setting [4]); on PDE4D (setting [5])) was greater than 10 µM each time.
Turning to `N#Cc1c(NC2CCOC2=O)sc(C(=O)c2ccccn2)c1N` (stereo not shown) [Compound 1-152, 4-Amino-2-(2-oxo-tetrahydro-furan-3-ylamino)-5-(pyridine-2-carbonyl)-thiophene-3-carbonitrile], the IC50 (in assay [1] (setting [4]); on PDE4D (setting [5])) was greater than 10 µM in each case.
For the compound `O=S(=O)(Nc1cccc2cccnc12)c1ccc(S(=O)(=O)c2ccccc2)s1` [Compound 3-40, 5-Benzenesulfonyl-thiophene-2-sulfonic acid quinolin-8-ylamide], the IC50 (in assay [1] (setting [2]); on PDE4D (setting [3])) was greater than 10 µM each time.
As for `CCOC(=O)c1cc(C(=O)c2sc(NC3CC3)nc2N)on1` [Compound 2-5, 5-(4-Amino-2-cyclopropylamino-thiazole-5-carbonyl)-isoxazole-3-carboxylic acid ethyl ester], the IC50 (in assay [1] (setting [6]); on PDE4D (setting [7])) was less than 10 µM each time.
For the compound `COc1ccc(C(=O)c2sc(Nc3ccc4c(c3)CCC4)c(C#N)c2N)c(OC)c1` [Compound 1-102, 4-Amino-5-(2,4-dimethoxy-benzoyl)-2-(indan-5-ylamino)-thiophene-3-carbonitrile], the IC50 (in assay [1] (setting [4]); at PDE4D (setting [5])) was less than 10 µM each time.
As for `COc1ccc(C(=O)c2sc(NCCN3CCCCC3)c(C#N)c2N)c(OC)c1` [Compound 1-41, 4-Amino-5-(2,4-dimethoxy-benzoyl)-2-(2-piperidin-1-yl-ethylamino)-thiophene-3-carbonitrile], the IC50 (in assay [1] (setting [4]); on PDE4D (setting [5])) was greater than 10 µM throughout.
As to `Nc1nc(NC2CCCC2)sc1C(=O)c1ccc(OC(F)F)cc1` [Compound 2-84, (4-Amino-2-cyclopentylamino-thiazol-5-yl)-(4-difluoromethoxy-phenyl)-methanone], the IC50 (in assay [1] (setting [8]); on PDE4D (setting [9])) was less than 10 µM in each case.
Take `COc1ccc(Nc2nc(N)c(C(=O)c3cccc(Cl)c3)s2)cc1` [Compound 2-51, [4-Amino-2-(4-methoxy-phenylamino)-thiazol-5-yl]-(3-chloro-phenyl)-methanone]: the IC50 (in assay [1] (setting [8]); on PDE4D (setting [9])) was less than 10 µM throughout.
Turning to `COc1ccc(Nc2sc(C(=O)c3cc(OC)ccc3OC)c(N)c2C#N)cc1` [Compound 1-93, 4-Amino-5-(2,5-dimethoxy-benzoyl)-2-(4-methoxy-phenylamino)-thiophene-3-carbonitrile], the IC50 (in assay [1] (setting [4]); at PDE4D (setting [5])) was less than 10 µM throughout.
In the case of `Nc1nc(Nc2ccc(Cl)cc2)sc1C(=O)c1ccc(Br)cc1` [Compound 2-27, [4-Amino-2-(4-chloro-phenylamino)-thiazol-5-yl]-(4-bromo-phenyl)-methanone], the IC50 (in assay [1] (setting [8]); on PDE4D (setting [9])) was less than 10 µM each time.
As to `Nc1nc(Nc2c(Cl)cccc2Cl)sc1C(=O)C1CC1` [Compound 2-96, [4-Amino-2-(2,6-dichloro-phenylamino)-thiazol-5-yl]-cyclopropyl-methanone], the IC50 (in assay [1] (setting [8]); on PDE4D (setting [9])) was less than 10 µM in each case.
As to `Nc1nc(NC2CCCC2)sc1C(=O)c1ccccc1Cl` [Compound 2-75, (4-Amino-2-cyclopentylamino-thiazol-5-yl)-(2-chloro-phenyl)-methanone], the IC50 (in assay [1] (setting [8]); on PDE4D (setting [9])) was greater than 10 µM each time.
In the case of `Nc1nc(NC2CCCC2)sc1C(=O)c1cccc(C(F)(F)F)c1` [Compound 2-82, (4-Amino-2-cyclopentylamino-thiazol-5-yl)-(3-trifluoromethyl-phenyl)-methanone], the IC50 (in assay [1] (setting [8]); on PDE4D (setting [9])) was less than 10 µM throughout.
On to `Nc1nc(NC2CC2)sc1C(=O)c1ccc(Oc2ccccc2)cc1` [Compound 2-77, (4-Amino-2-cyclopropylamino-thiazol-5-yl)-(4-phenoxy-phenyl)-methanone], for which the IC50 (in assay [1] (setting [8]); at PDE4D (setting [9])) was less than 10 µM throughout.
Take `Cc1c(C(=O)c2sc(NC3CCOC3=O)c(C#N)c2N)cnn1-c1ccccc1` (stereo not shown) [Compound 1-56, 4-Amino-5-(5-methyl-1-phenyl-1H-pyrazole-4-carbonyl)-2-(2-oxo-tetrahydro-furan-3-ylamino)-thiophene-3-carbonitrile]: the IC50 was less than 10 µM in assay [1] (setting [4]) and greater than 10 µM on PDE4D (setting [5]).
On to `O=S(=O)(Nc1cccc2cccnc12)c1cccs1` [Compound 3-1, Thiophene-2-sulfonic acid guinolin-8-ylamide], for which the IC50 (in assay [1] (setting [2]); on PDE4D (setting [3])) was greater than 10 µM each time.
In the case of `COc1ccc(OC)c(C(=O)c2sc(Nc3ccccc3F)c(C#N)c2N)c1` [Compound 1-92, 4-Amino-5-(2,5-dimethoxy-benzoyl)-2-(2-fluoro-phenylamino)-thiophene-3-carbonitrile], the IC50 (in assay [1] (setting [4]); at PDE4D (setting [5])) was less than 10 µM each time.
Take `CCc1ccccc1Nc1sc(C(=O)c2coc3ccccc23)c(N)c1C#N` [Compound 1-109, 4-Amino-5-(benzofuran-3-carbonyl)-2-(2-ethyl-phenylamino)-thiophene-3-carbonitrile]: the IC50 (in assay [1] (setting [4]); at PDE4D (setting [5])) was less than 10 µM in each case.
Turning to `O=S(=O)(Nc1cccc2cccnc12)c1cc(Cl)c(Cl)s1` [Compound 3-10, 4,5-Dichloro-thiophene-2-sulfonic acid quinolin-8-ylamide], the IC50 (in assay [1] (setting [2]); at PDE4D (setting [3])) was greater than 10 µM in each case.
For the compound `COc1ccc(Nc2nc(N)c(C(=O)c3ccccc3)s2)cc1` [Compound 2-39, [4-Amino-2-(4-methoxy-phenylamino)-thiazol-5-yl]-phenyl-methanone], the IC50 (in assay [1] (setting [8]); at PDE4D (setting [9])) was less than 10 µM each time.
`Nc1nc(NC2CC2)sc1C(=O)c1ccc(OC(F)F)cc1` [Compound 2-85, (4-Amino-2-thiazol-5-yl)-(4-difluoromethoxy-phenyl)-methanone]: the IC50 was less than 10 µM in assay [1] (setting [8]) and greater than 10 µM on PDE4D (setting [9]).
The like results for `Nc1nc(Nc2ccccc2F)sc1C(=O)c1cccc(Cl)c1` [Compound 2-50, [4-Amino-2-(2-fluoro-phenylamino)-thiazol-5-yl]-(3-chloro-phenyl)-methanone] were, in that order, less than 10 µM and less than 10 µM.
`Cc1c(C(=O)c2sc(Nc3ccc(C(=O)NC4CCOC4=O)cc3)c(C#N)c2N)cnn1-c1ccccc1` (stereo not shown) [Compound 1-127, 4-[4-Amino-3-cyano-5-(5-methyl-1-phenyl-1H-pyrazole-4-carbonyl)-thiophen-2-ylamino]-N-(2-oxo-tetrahydro-furan-3-yl)-benzamide]: the IC50 (in assay [1] (setting [4]); at PDE4D (setting [5])) was less than 10 µM each time.
For `CCOC(=O)c1cc(C(=O)c2sc(Nc3ccc(Oc4ccccc4)cc3)nc2N)on1` [Compound 2-3, 5-[4-Amino-2-(4-phenoxy-phenylamino)-thiazole-5-carbonyl]-isoxazole-3-carboxylic acid ethyl ester], the IC50 (in assay [1] (setting [6]); on PDE4D (setting [7])) was greater than 10 µM throughout.
As to `Cc1nc(-c2cnccn2)sc1C(=O)c1sc(NC2CCCC2)nc1N` [Compound 2-22, (4-Amino-2-cyclopentylamino-thiazol-5-yl)-(4-methyl-2-pyrazin-2-yl-thiazol-5-yl)-methanone], the IC50 (in assay [1] (setting [6]); on PDE4D (setting [7])) was less than 10 µM in each case.
For the compound `COc1ccc(Nc2sc(C(=O)c3ccccn3)c(N)c2C#N)cc1` [Compound 1-145, 4-Amino-2-(4-methoxy-phenylamino)-5-(pyridine-2-carbonyl)-thiophene-3-carbonitrile], the IC50 (in assay [1] (setting [4]); at PDE4D (setting [5])) was greater than 10 µM throughout.
Consider `Cn1nc(-c2ccc(S(=O)(=O)Nc3cccc4cccnc34)s2)cc1C(F)(F)F` [Compound 3-20, 5-(1-Methyl-5-trifluoromethyl-1H-pyrazol-3-yl)-thiophene-2-sulfonic acid quinolin-8-ylamide], for which the IC50 (in assay [1] (setting [2]); at PDE4D (setting [3])) was greater than 10 µM each time.
Regarding `COc1ccc(CNc2sc(C(=O)c3c(-c4ccccc4)noc3C)c(N)c2C#N)cc1OC` [Compound 1-132, 4-Amino-2-(3,4-dimethoxy-benzylamino)-5-(5-methyl-3-phenyl-isoxazole-4-carbonyl)-thiophene-3-carbonitrile], the IC50 (in assay [1] (setting [4]); at PDE4D (setting [5])) was less than 10 µM in each case.
As to `N#Cc1c(Nc2ccccc2F)sc(C(=O)c2ccccn2)c1N` [Compound 1-144, 4-Amino-2-(2-fluoro-phenylamino)-5-(pyridine-2-carbonyl)-thiophene-3-carbonitrile], the IC50 (in assay [1] (setting [4]); on PDE4D (setting [5])) was less than 10 µM throughout.
Take `Nc1nc(Nc2ccccc2F)sc1C(=O)C1CCCC1` [Compound 2-98, [4-Amino-2-(2-fluoro-phenylamino)-thiazol-5-yl]-cyclopentyl-methanone]: the IC50 (in assay [1] (setting [8]); on PDE4D (setting [9])) was less than 10 µM throughout.
